Results on 19 molecules are retold here after patent US11021481B2, “Substituted isoindolin-1-ones and 2,3-dihydro-1h-pyrrolo[3,4-c]pyridin-1-ones as HPK1 antagonists” (Nimbus Saturn, Inc., priority 2019, dated 2021).

For orientation: IC50 means the midpoint of a concentration-inhibition curve.

The target of the assay is HPK1 (Homo sapiens (Human), UniProt Q92918). Briefly: HPK1 biochemical enzyme assay (microfluidic mobility shift assay). The note with it: 1.5 nM HPK1, ATP 1 mM final, 30 min preincubation, 60 min at RT, Caliper EZ Reader; read-out: HPK1 1000UMATP caliper IC50. The method, then: HPK1 biochemical enzyme assay: HPK1 enzyme inhibition was measured using a microfluidic mobility shift assay. […] Test compounds were titrated in ten point curves (top final assay concentration 3 μM), and preincubated with enzyme/substrate mix for 30 min prior to initiation of the reaction by addition of ATP (1 mM final concentration) and substrate (1 μM final concentration; Carna Biosciences) diluted in assay buffer supplemented by MgCl2 (final assay concentration of 5 mM). Following 60 min incubation at RT, the reaction was terminated by addition of 60 µl/well termination buffer (Carna Biosciences) and signal determination using aCaliper EZ Reader (Perkin Elmer, UK).
HPK1, sequence (Q92918 whole entry): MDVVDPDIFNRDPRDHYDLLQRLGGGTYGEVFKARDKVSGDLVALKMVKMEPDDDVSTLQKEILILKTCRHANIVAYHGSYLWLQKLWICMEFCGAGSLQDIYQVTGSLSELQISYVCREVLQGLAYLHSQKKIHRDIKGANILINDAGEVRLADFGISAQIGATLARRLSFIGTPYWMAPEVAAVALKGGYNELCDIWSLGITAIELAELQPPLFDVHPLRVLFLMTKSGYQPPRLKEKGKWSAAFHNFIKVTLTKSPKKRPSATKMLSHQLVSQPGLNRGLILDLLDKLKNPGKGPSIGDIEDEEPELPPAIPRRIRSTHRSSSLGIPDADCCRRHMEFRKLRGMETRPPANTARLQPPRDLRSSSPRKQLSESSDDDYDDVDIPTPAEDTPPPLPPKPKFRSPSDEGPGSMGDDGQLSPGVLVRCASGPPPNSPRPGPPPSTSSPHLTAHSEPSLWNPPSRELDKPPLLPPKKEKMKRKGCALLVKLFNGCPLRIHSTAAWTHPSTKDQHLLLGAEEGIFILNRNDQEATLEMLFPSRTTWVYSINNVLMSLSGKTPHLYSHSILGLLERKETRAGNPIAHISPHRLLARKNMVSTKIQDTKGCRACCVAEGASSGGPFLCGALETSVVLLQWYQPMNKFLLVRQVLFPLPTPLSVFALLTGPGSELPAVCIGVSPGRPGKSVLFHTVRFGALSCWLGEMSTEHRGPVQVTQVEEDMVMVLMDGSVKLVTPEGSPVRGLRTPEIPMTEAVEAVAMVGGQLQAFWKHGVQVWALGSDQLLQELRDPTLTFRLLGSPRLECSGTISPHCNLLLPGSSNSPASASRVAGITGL
The compound numbers correspond to the compound numbers in Table 1.
In the case of `C[C@H](O)[C@@H]1CCCN(c2ccc(Nc3ccc(-c4cnc5cc(F)ccn45)c4c3C(=O)NC4)nc2)C1` (stereo in doubt) [I-363, 4-(7-fluoroimidazo [1,2-a]pyridin-3-yl)-7-((5-((S)-3-((R)-1-hydroxyethyl)piperidin-1-yl)pyridin-2-yl)amino)isoin-dolin-1-one], the IC50 is less than 100 nM.

Consider `C[C@@H](O)[C@H]1CCCN(c2ccc(Nc3ccc(-c4cnc5cc(F)ccn45)c4c3C(=O)NC4)nc2)C1` (stereo in doubt) [I-364, 4-(7-fluoroimidazo [1,2-a]pyridin-3-yl)-7-((5-((R)-3-((S)-1-hydroxyethyl)piperidin-1-yl)pyridin-2-yl)amino)isoin-dolin-1-one], for which the IC50 was less than 100 nM.

For `C[C@@H](c1ccc(Nc2ccc(-c3cnc4cc(F)ccn34)c3c2C(=O)NC3)nc1)N1CCC[C@H](O)C1` (stereo in doubt) [I-513, 4-(7-f1uoroimidazo [1,2-a]pyridin-3-yl)-7-((5-((S)-1-((S)-3-hydroxypiperidin-1-yl)ethyl)pyridin-2-yl)amino)isoin-dolin-1-one], the IC50 was less than 100 nM.

`C[C@H](c1ccc(Nc2ccc(-c3cnc4cc(F)ccn34)c3c2C(=O)NC3)nc1)N1CCC[C@H](O)C1` (stereo in doubt) [I-514, 4-(7-fluoroimidazo [1,2-a]pyridin-3-yl)-7-((5-((R)-1-((S)-3-hydroxypiperidin-1-yl)ethyl)pyridin-2-yl)amino)isoin-dolin-1-one]: the IC50 was less than 100 nM.

Turning to `CO[C@@H]1CC[C@@H](CO)N(c2ccc(Nc3ccc(-c4cnn5c4CCCC5)c4c3C(=O)NC4)nc2)C1` (stereo in doubt) [I-572, 7-((5-((2R,5R)-2-(hydroxymeth-yl)-5-methoxy-piperidin-1-yl)pyridin-2-yl)amino)-4-(4,5,6,7-tetralndropyra-zolo[1,5-a]pyridin-3-yl)isoindolin-1-one], the IC50 is less than 100 nM.

As for `CN(C)C(C)(C)C1CN(c2ccc(Nc3ccc(-c4cnc5cc(F)ccn45)c4c3C(=O)NC4)nc2)CCO1` (stereo in doubt) [I-590, (R)-7-((5-(2-(2-(dimethylami-no)propan-2-yl)morpho-lino)pyridin-2-yl)amino)-4-(7-fluoroimidazo [1,2-a]pyridin-3-yl)isoindolin-1-one], the IC50 is less than 100 nM.

With `CN(C)C(C)(C)C1CN(c2ccc(Nc3ccc(-c4cnc5cc(F)ccn45)c4c3C(=O)NC4)nc2)CCO1` (stereo in doubt) [I-591, (S)-7-((5-(2-(2-(dimethylami-no)propan-2-yl)morpho-lino)pyridin-2-yl)amino)-4-(7-fluoroimidazo [1,2-a]pyridin-3-yl)isoindolin-l-one], the IC50 is less than 100 nM.

Consider `O=C1NCc2c(-c3cnc4cc(Cl)ccn34)ccc(Nc3ccc(N4CCOCC(O)C4)cn3)c21` (stereo in doubt) [I-595, (S)-4-(7-chloroimidazo [1,2-a]pyridin-3-yl)-7-((5-(6-hydroxy-1.4-oxazepan-4-yl)pyridin-2-yl)amino)isoin-dolin-1-one], for which the IC50 was less than 100 nM.

`O=C1NCc2c(-c3cnc4cc(Cl)ccn34)ccc(Nc3ccc(N4CCOCC(O)C4)cn3)c21` (stereo in doubt) [I-596, (R)-4-(7-chloroimidazo [1,2-a]pyridin-3-yl)-7-((5-(6-hydroxy-1.4-oxazepan-4-yl)pyridin-2-yl)amino)isoin-dolin-1-one]: the IC50 is less than 100 nM.

For the molecule `C[C@@H]1CC[C@](C)(O)CN1c1ccc(Nc2ccc(-c3cnn4c3CCCC4)c3c2C(=O)NC3)nc1` (stereo in doubt) [I-597, 7-((5-((2S,5S)-5-hydroxy-2,5-dimethyl-piperidin-1-yl)pyridin-2-yl)amino)-4-(4,5,6,7-tetrahydropyra-zolo[1,5-a]pyridin-3-yl)isoindolin-1-one], the IC50 is less than 100 nM.

Turning to `CN(C)C(C)(C)C1CCCN(c2ccc(Nc3ccc(-c4cnc5cc(F)ccn45)c4c3C(=O)NC4)nc2)C1` (stereo in doubt) [I-606, (R)-7-((5-(3-(2-(dimethylami-no)propan-2-yl)piperidin-1-yl)pyridin-2-yl)amino)-4-(7-fluoroimidazo [1,2-a]pyridin-3-yl)isoindolin-1-one], the IC50 was less than 100 nM.

With `CN(C)C(C)(C)C1CCCN(c2ccc(Nc3ccc(-c4cnc5cc(F)ccn45)c4c3C(=O)NC4)nc2)C1` (stereo in doubt) [I-607, (S)-7-((5-(3-(2-(dimethylami-no)propan-2-yl)piperidin-1-yl)pyridin-2-yl)amino)-4-(7-fluoroimidazo [1,2-a]pyridin-3-yl)isoindolin-1-one], the IC50 is less than 100 nM.

`Cc1ccn2c(-c3ccc(Nc4ccc(N5CCOC(CN(C)C)C5)cn4)c4c3CNC4=O)cnc2c1F` (stereo in doubt) [I-613, (S)-7-((5-(2-((dimethylamino)-methyl)mor-pholino)pyridin-2-yl)amino)-4-(8-fluoro-7-methylimidazo [1,2-a]pyridin-3-yl)isoindolin-1-one]: the IC50 was less than 100 nM.

Regarding `Cc1ccn2c(-c3ccc(Nc4ccc(N5CCOC(CN(C)C)C5)cn4)c4c3CNC4=O)cnc2c1F` (stereo in doubt) [I-614, (R)-7-((5-(2-((dimethylamino)-methyl)mor-pholino)pyridin-2-yl)amino)-4-(8-fluoro-7-methylimidazo [1,2-a]pyridin-3-yl)isoindolin-1-one], the IC50 was less than 100 nM.

In the case of `CN1CCN(c2ccc(Nc3cnc(-c4cnc5c(F)cccn45)c4c3C(=O)NC4)nc2)C[C@H]1C(C)(C)O` (stereo in doubt) [I-621, (R]-4-(8-fluoroimidazo [1,2-a]pyridin-3-yl)-7-((5-(3-(2-hydroxypropan-2-yl)-4-methylpiperazin-1-yl)pyridin-2-yl)amino)-2.3-dihydro-1H-pyrrolo[3,4-c]pyridin-1-one], the IC50 was less than 100 nM.

As to `CN1CCN(c2ccc(Nc3cnc(-c4cnc5c(F)cccn45)c4c3C(=O)NC4)nc2)CC1C(C)(C)O` (stereo in doubt) [I-622, (S)-4-(8-fluoroimidazo [1,2-a]pyridin-3-yl)-7-((5-(3-(2-hydroxypropan-2-yl)-4-methylpiperazin-1-yl)pyridin-2-yl)amino)-2.3-dihydro-1H-pyrrolo[3,4-c]pyridin-1-one], the IC50 is less than 100 nM.

For `COCC1CN(c2ccc(Nc3ccc(-c4cnc5nc(C)ccn45)c4c3C(=O)NC4)nc2)CCO1` (stereo in doubt) [I-628, (R)-7-((5-(2-(methoxymeth-yl)morpho-lino)pyridin-2-yl)amino)-4-(7-methylimidazol',2-a]pyriinidin-3-yl)isoindolin-1-one], the IC50 was less than 100 nM.

In the case of `COCC1CN(c2ccc(Nc3ccc(-c4cnc5nc(C)ccn45)c4c3C(=O)NC4)nc2)CCO1` (stereo in doubt) [I-629, (S)-7-((5-(2-(methoxymeth-yl)morpho-lino)pyridin-2-yl)amino)-4-(7-methylimidazo [1,2-a]pyrimidin-3-yl) isoindolin-1-one], the IC50 is less than 100 nM.

Consider `COCC1CN(c2ccc(Nc3ccc(-c4ncnc5c4ccn5C)c4c3C(=O)NC4)nc2)CCO1` (stereo in doubt) [I-649, (R)-7-((5-(2-(methylmeth-yl)morpho-lino)pyridin-2-yl)amino)-4-(7-methyl-7]-4-pyrrolo[2,3-d]pyrimidin-4-yl)isoindolin-1-one], for which the IC50 was less than 100 nM.
